This is an account of results in patent US6881719B2, “β-turn peptidomimetic cyclic compounds” (McGill University, priority 2000, dated 2005).

The target of test [1] is T1, cell surface TrkA (4-3.6 cells, p75+ TrkA+) (Homo sapiens, UniProt P04629).
T1 construct: expressed in transfected cells
As to the kind of experiment: FACScan binding of D3-biotin to 4-3.6 cells. From the text:
(§1) The 4-3.6 cells are B104 cells stably transfected with human trkA cDNA, and express equal levels of p75 and TrkA (TrkA+ p75+). For screening agents that activate or antagonize TrkC receptors, NIH3T3 fibroblasts were stably transfected with human TrkC cDNA. These cells respond to the ligand NT-3. For screening agents that activate or antagonize TrkA receptors, NIH3T3 fibroblasts were stably transfected with human TrkA cDNA. These cells respond to the ligand NGF.
FACScan binding assays: 4-3.6 cells (2×10^5) in FACScan binding buffer (PBS, 0.5% BSA, and 0.1% NaN3) were immunostained as described (Saragovi et al., 1998). Saturating anti-TrkA mAb 5C3, or anti-p75 mAb MC192, or control non-binding IgGs were added to cells for 1 hour at 4° C., in the presence or absence of D3 as competitor. Excess primary antibody was washed off, and cells were immunostained with fluorescinated goat-anti-mouse IgG secondary antibody. Cells were acquired on a FACScan and mean channel fluorescence of bell-shaped histograms were analyzed using the LYSIS II program.
FACScan analysis featuring the secondary fluorescent agent avidin-FITC was used to detect binding of D3-biotin to the cell surface (Table 1). The 4-3.6 cells (p75+TrkA+) had fluorescence approximately 4 times greater for D3-biotin than for a background control peptide-biotin.

The next test has as its system B104 cells (p75+ TrkA-). Briefly: FACScan binding of D3-biotin to B104 cells. Details: species or system rat. The following applies: D3-biotin 20 μM + D3 200 μM as competitor.
Another test has as its system septal neuronal cultures. As to the kind of experiment: ChAT activity in septal neuronal cultures. It counts as cell-based, rat. The following applies: day 8. Here is the method:
Cell cultures were established from the septal area of 17-day-old rat embryos. In brief, tissue was incubated in PBS containing trypsin and DNase. Tissue pieces then were mechanically dissociated. After centrifugation, the pellet was suspended in Leibovitz's L-15 medium. Cells were plated onto 96-multiwell NUNC dishes (10^5 cells/well) coated with poly-D-lysine (5 μg/ml). Pure cultures of septal neurons were treated 1 day after plating. Drugs, prepared in medium, were added directly to the cells without changing the initial medium. The incubation continued for 8 days, at which time ChAT activity was evaluated.
At day 8 of culture, the medium was aspirated, and ice-cold lysis buffer (10 mM sodium phosphate, pH 7.4/0.1% TritonX-100—Trade-mark) was added. ChAT activity assays were performed directly in the wells using Fonnum's method (Fonnum, 1975).

The target in test [2] is T2, NIH3T3 fibroblasts expressing TrkC (Homo sapiens, UniProt Q16288).
T2 construct: expressed in transfected cells; host or cells: NIH3T3 fibroblasts
T2 sequence (Q16288 32-839): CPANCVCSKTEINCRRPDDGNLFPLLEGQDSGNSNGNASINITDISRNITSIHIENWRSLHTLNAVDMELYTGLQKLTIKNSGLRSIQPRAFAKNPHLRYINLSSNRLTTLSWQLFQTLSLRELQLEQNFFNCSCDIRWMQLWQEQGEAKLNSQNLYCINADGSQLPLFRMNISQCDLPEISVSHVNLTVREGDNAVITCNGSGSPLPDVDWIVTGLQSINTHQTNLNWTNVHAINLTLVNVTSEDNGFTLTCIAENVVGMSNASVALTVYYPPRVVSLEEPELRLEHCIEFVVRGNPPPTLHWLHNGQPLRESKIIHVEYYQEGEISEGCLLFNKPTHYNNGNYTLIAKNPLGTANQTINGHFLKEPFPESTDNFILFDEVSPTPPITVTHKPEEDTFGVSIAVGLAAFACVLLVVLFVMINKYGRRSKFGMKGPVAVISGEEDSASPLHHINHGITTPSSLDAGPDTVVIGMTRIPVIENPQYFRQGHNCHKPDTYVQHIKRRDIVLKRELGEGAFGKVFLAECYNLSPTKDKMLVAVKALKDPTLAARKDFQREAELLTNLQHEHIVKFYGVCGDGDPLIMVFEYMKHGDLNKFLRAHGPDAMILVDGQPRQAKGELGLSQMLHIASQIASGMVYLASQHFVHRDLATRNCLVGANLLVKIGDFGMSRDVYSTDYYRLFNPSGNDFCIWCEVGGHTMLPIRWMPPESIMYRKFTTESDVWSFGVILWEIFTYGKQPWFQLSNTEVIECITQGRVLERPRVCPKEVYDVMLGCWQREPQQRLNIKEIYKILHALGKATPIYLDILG
As to the kind of experiment: Cell survival (MTT), NIH-TrkC. As to conditions: for NIH-TrkC % Protection: 72 hours. It counts as cell-based.
From the text: as §1
(§2) Cell lines: 5,000 cells/well in protein-free media (PFHM-II, GIBCO, Toronto) containing 0.2% bovine serum albumin (BSA) (Crystalline fraction V, Sigma, St. Louis, Mo.) were seeded in 96 well plates (Falcon, Mississauga, Ontario). The cultures were untreated, or treated with the indicated test or control ligands. Cell viability was quantitated using the MTT assay after 56-72 hours of culture. […] The OD of untreated cells were subtracted. The higher optical density of untreated primary cultures is likely due to cellular heterogeneity and to endogenous production of limiting amounts of growth factors.

Test [3] concerns wild type NIH3T3 fibroblasts. As to the kind of experiment: Cell survival (MTT), NIH wt. The format is cell-based. The following applies: 72 hours.
From the text: as §1, §2

T1 sequence (P04629 33-796): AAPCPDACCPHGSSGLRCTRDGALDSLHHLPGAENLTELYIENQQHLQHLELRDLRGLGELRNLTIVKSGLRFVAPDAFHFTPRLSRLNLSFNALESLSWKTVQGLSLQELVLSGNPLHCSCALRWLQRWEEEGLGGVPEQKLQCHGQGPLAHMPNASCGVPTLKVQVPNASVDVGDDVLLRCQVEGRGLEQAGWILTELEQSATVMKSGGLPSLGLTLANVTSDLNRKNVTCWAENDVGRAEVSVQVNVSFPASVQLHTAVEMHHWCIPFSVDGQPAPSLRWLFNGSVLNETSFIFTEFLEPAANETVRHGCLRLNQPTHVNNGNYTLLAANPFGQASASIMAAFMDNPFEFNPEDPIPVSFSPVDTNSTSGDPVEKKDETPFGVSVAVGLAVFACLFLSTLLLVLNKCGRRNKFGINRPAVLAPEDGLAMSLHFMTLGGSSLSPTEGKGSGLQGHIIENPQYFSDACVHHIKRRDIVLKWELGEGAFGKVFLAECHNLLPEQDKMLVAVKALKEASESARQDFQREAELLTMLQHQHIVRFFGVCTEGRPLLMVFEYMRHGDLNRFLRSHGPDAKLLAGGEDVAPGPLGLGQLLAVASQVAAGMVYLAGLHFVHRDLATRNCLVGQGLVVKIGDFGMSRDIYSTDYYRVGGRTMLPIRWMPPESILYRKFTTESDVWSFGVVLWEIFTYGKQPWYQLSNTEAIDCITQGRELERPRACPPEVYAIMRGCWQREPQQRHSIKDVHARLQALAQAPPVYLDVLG

Take `NCCCC[C@@H]1NC(=O)[C@H](CCC(=O)O)NC(=O)c2cc([N+](=O)[O-])ccc2OCCC(C(=O)NCC(=O)O)NC1=O` (some centres unmarked) [D3, EKHse-G-OH]: the “competition of D3-biotin binding” value in test [1] (10-fold molar excess of D3) is given as “abolished binding of D3-biotin”. Also, the “MCF (mean channel fluorescence)” value amounted to 17 ± 7 in test [1] (D3-biotin 20 μM + D3 200 μM as competitor) and 11 ± 2 in the test with B104 cells (p75+ TrkA-). Further, the “ChAT Activity” value came to 0.60 ± 0.04 pmol Ach/min/well with septal neuronal cultures (compound 0.2 μM + 10 pM NGF); 0.37 ± 0.05 pmol Ach/min/well in the test with septal neuronal cultures (compound 0.2 μM alone); 0.76 ± 0.03 pmol Ach/min/well in the test on septal neuronal cultures (compound 2 μM + 10 pM NGF); 0.44 ± 0.02 pmol Ach/min/well in the test on septal neuronal cultures (compound 2 μM alone); 0.79 ± 0.04 pmol Ach/min/well in the test on septal neuronal cultures (compound 20 μM + 10 pM NGF); 0.48 ± 0.06 pmol Ach/min/well in the test with septal neuronal cultures (compound 20 μM alone). Besides, the “Fold Increase (ChAT activity)” value in the test with septal neuronal cultures (compound 0.2 μM + 10 pM NGF) is given as 2.00; with septal neuronal cultures (compound 0.2 μM alone) it was 1.23; in the test with septal neuronal cultures (compound 2 μM + 10 pM NGF), 2.53; in the test with septal neuronal cultures (compound 2 μM alone), 1.47; with septal neuronal cultures (compound 20 μM + 10 pM NGF), 2.63; in the test on septal neuronal cultures (compound 20 μM alone), 1.56. For the same compound, in test [2] (NIH3T3 cells stably transfected with trkC cDNA), the “enhancement of NT-3 protection” value is reported as “did not enhance NT-3 protection”. Also, the entries for the “NIH-TrkC % Protection” value in test [2] (agent 10 μM + 10 pM NGF) and in test [2] (agent 10 μM alone) were 6 ± 2% and 3 ± 3%, respectively. Further, the “NIH wt % Protection” value is on record as 0 ± 3% in test [3] (agent 10 μM + 10 pM NGF) and −3 ± 5% in test [3] (agent 10 μM alone).
